In brackets after ≈: the same amount, converted by molar mass.
Tests used:
Type in all cases: functional
Escherichia coli [1] = assay: Antibacterial activity against Escherichia coli assessed as inhibition of bacterial growth
Escherichia coli [2] = assay: Antibacterial activity against Escherichia coli ATCC 25922 assessed as inhibition of bacterial growth
Klebsiella pneumoniae = assay: Antibacterial activity against Klebsiella pneumoniae assessed as inhibition of bacterial growth
Staphylococcus aureus [3] = assay: Antibacterial activity against methicillin resistant Staphylococcus aureus N315 assessed as inhibition of bacterial growth
Staphylococcus aureus [4] = assay: Antibacterial activity against Staphylococcus aureus ATCC 29213 assessed as inhibition of bacterial growth
Staphylococcus aureus [5] = assay: Antibacterial activity against Staphylococcus aureus ATCC 25923 assessed as inhibition of bacterial growth
Pseudomonas aeruginosa [6] = assay: Antibacterial activity against Pseudomonas aeruginosa assessed as inhibition of bacterial growth
Staphylococcus aureus [7] = assay: Antibacterial activity against Staphylococcus aureus assessed as inhibition of bacterial growth
Acinetobacter baumannii = assay: Antibacterial activity against Acinetobacter baumannii assessed as inhibition of bacterial growth
Enterococcus faecalis = assay: Antibacterial activity against Enterococcus faecalis assessed as inhibition of bacterial growth
Pseudomonas aeruginosa [8] = assay: Antibacterial activity against Pseudomonas aeruginosa ATCC 27853 assessed as inhibition of bacterial growth

Compound	MIC (Escherichia coli [1])	MIC (Escherichia coli [2])	MIC (Klebsiella pneumoniae)	MIC (Staphylococcus aureus [3])	MIC (Staphylococcus aureus [4])	MIC (Staphylococcus aureus [5])	MIC (Pseudomonas aeruginosa [6])	MIC (Staphylococcus aureus [7])	MIC (Acinetobacter baumannii)	MIC (Enterococcus faecalis)	MIC (Pseudomonas aeruginosa [8])
CCOP(=O)(OCC)C(Nc1ccc2c(C)cc(=O)oc2c1)c1ccc(Cl)cc1 (stereo not given)	128 µg/mL (≈ 294 µM)	4 µg/mL (≈ 9.18 µM)	64 µg/mL (≈ 147 µM)	128 µg/mL (≈ 294 µM)	128 µg/mL (≈ 294 µM)	4 µg/mL (≈ 9.18 µM)	16 µg/mL (≈ 36.7 µM)	256 µg/mL (≈ 587 µM)	64 µg/mL (≈ 147 µM)	64 µg/mL (≈ 147 µM)	8 µg/mL (≈ 18.4 µM)
CCOP(=O)(OCC)C(Nc1ccc2c(C)c(Cl)c(=O)oc2c1)c1cccc(O)c1 (stereo not given)	128 µg/mL (≈ 283 µM)	16 µg/mL (≈ 35.4 µM)	128 µg/mL (≈ 283 µM)	32 µg/mL (≈ 70.8 µM)	32 µg/mL (≈ 70.8 µM)	32 µg/mL (≈ 70.8 µM)	64 µg/mL (≈ 142 µM)	16 µg/mL (≈ 35.4 µM)	32 µg/mL (≈ 70.8 µM)	64 µg/mL (≈ 142 µM)	128 µg/mL (≈ 283 µM)
CCCCc1nc(Cl)c(C(Nc2ccc3c(C)cc(=O)oc3c2)P(=O)(OCC)OCC)n1Cc1ccccc1F (stereo not given)	32 µg/mL (≈ 54.2 µM)	256 µg/mL (≈ 434 µM)	128 µg/mL (≈ 217 µM)	64 µg/mL (≈ 108 µM)	32 µg/mL (≈ 54.2 µM)	64 µg/mL (≈ 108 µM)	256 µg/mL (≈ 434 µM)	128 µg/mL (≈ 217 µM)	32 µg/mL (≈ 54.2 µM)	128 µg/mL (≈ 217 µM)	64 µg/mL (≈ 108 µM)
CCOP(=O)(OCC)C(Nc1ccc2c(C)cc(=O)oc2c1)c1ccc(O)c([N+](=O)[O-])c1 (stereo not given)	64 µg/mL (≈ 138 µM)	128 µg/mL (≈ 277 µM)	128 µg/mL (≈ 277 µM)	256 µg/mL (≈ 554 µM)	32 µg/mL (≈ 69.2 µM)	64 µg/mL (≈ 138 µM)	32 µg/mL (≈ 69.2 µM)	32 µg/mL (≈ 69.2 µM)	64 µg/mL (≈ 138 µM)	64 µg/mL (≈ 138 µM)	128 µg/mL (≈ 277 µM)
CCOP(=O)(OCC)C(Nc1ccc2c(C(F)(F)F)cc(=O)oc2c1)c1cccc(O)c1 (stereo not given)	256 µg/mL (≈ 543 µM)	16 µg/mL (≈ 33.9 µM)	32 µg/mL (≈ 67.9 µM)	32 µg/mL (≈ 67.9 µM)	64 µg/mL (≈ 136 µM)	8 µg/mL (≈ 17 µM)	32 µg/mL (≈ 67.9 µM)	16 µg/mL (≈ 33.9 µM)	128 µg/mL (≈ 272 µM)	16 µg/mL (≈ 33.9 µM)	16 µg/mL (≈ 33.9 µM)
CCOP(=O)(OCC)C(Nc1ccc2c(C)cc(=O)oc2c1)c1cc(O)c2c(c1)C(=O)c1cccc(O)c1C2=O (stereo not given)	8 µg/mL (≈ 14.2 µM)	4 µg/mL (≈ 7.1 µM)	32 µg/mL (≈ 56.8 µM)	4 µg/mL (≈ 7.1 µM)	8 µg/mL (≈ 14.2 µM)	4 µg/mL (≈ 7.1 µM)	8 µg/mL (≈ 14.2 µM)	8 µg/mL (≈ 14.2 µM)	16 µg/mL (≈ 28.4 µM)	32 µg/mL (≈ 56.8 µM)	8 µg/mL (≈ 14.2 µM)
CCOP(=O)(OCC)C(Nc1ccc2c(C)cc(=O)oc2c1)c1cccc(Cl)c1O (stereo not given)	128 µg/mL (≈ 283 µM)	64 µg/mL (≈ 142 µM)	128 µg/mL (≈ 283 µM)	64 µg/mL (≈ 142 µM)	128 µg/mL (≈ 283 µM)	64 µg/mL (≈ 142 µM)	16 µg/mL (≈ 35.4 µM)	32 µg/mL (≈ 70.8 µM)	128 µg/mL (≈ 283 µM)	128 µg/mL (≈ 283 µM)	64 µg/mL (≈ 142 µM)
CCOP(=O)(OCC)C(Nc1ccc2c(C)cc(=O)oc2c1)c1ccc(C(=O)O)cc1 (stereo not given)	32 µg/mL (≈ 71.8 µM)	256 µg/mL (≈ 575 µM)	64 µg/mL (≈ 144 µM)	256 µg/mL (≈ 575 µM)	64 µg/mL (≈ 144 µM)	128 µg/mL (≈ 287 µM)	16 µg/mL (≈ 35.9 µM)	64 µg/mL (≈ 144 µM)	128 µg/mL (≈ 287 µM)	128 µg/mL (≈ 287 µM)	64 µg/mL (≈ 144 µM)
CCOP(=O)(OCC)C(Nc1ccc2c(C)cc(=O)oc2c1)c1ccc(C(F)(F)F)cc1 (stereo not given)	128 µg/mL (≈ 273 µM)	64 µg/mL (≈ 136 µM)	128 µg/mL (≈ 273 µM)	256 µg/mL (≈ 545 µM)	256 µg/mL (≈ 545 µM)	256 µg/mL (≈ 545 µM)	64 µg/mL (≈ 136 µM)	256 µg/mL (≈ 545 µM)	128 µg/mL (≈ 273 µM)	128 µg/mL (≈ 273 µM)	64 µg/mL (≈ 136 µM)
CCOP(=O)(OCC)C(Nc1ccc2c(C)c(C)c(=O)oc2c1)c1cccc(O)c1 (stereo not given)	32 µg/mL (≈ 74.2 µM)	64 µg/mL (≈ 148 µM)	64 µg/mL (≈ 148 µM)	128 µg/mL (≈ 297 µM)	16 µg/mL (≈ 37.1 µM)	64 µg/mL (≈ 148 µM)	128 µg/mL (≈ 297 µM)	32 µg/mL (≈ 74.2 µM)	256 µg/mL (≈ 593 µM)	32 µg/mL (≈ 74.2 µM)	16 µg/mL (≈ 37.1 µM)

Reference: ChEMBL document CHEMBL5385845, “Novel coumarin aminophosphonates as potential multitargeting antibacterial agents against Staphylococcus aureus” (Eur J Med Chem, 2023)
